# Test results: US6461997B1, “Triazole sulfones having herbicidal activity” (Monsanto Technology LLC, priority 1999, dated 2002)
# Tested on: SINAR (wild mustard)
# Test: Pre-emergence herbicidal activity, cool season
# Type: in vivo, Sinapis arvensis
# Settings: lowest tested rate with 80% or greater inhibition; rates 300, 100, 30, 10 g/ha; about 14 days
# Method in brief: (§1)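 GR80 values derive from percent inhibition relative to untreated plants, read roughly 14 days after sowing and pre-emergence soil-surface treatment (compound in 50:50 acetone/water; rates typically 10, 30, 100, 300 g/ha). Warm-season weeds grew at 30/21° C day/night, cool-season ones at 18/13° C; an asterisk marks activity without reaching 80% at the highest rate.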
row,SMILES,"Pre-emergence activity GR80, SINAR"
1,CCOC(=O)C(F)(F)S(=O)(=O)c1ncn(C(=O)N(CC)CC)n1 [Example 7],"* (activity observed, at least at highest rate, but <80% inhibition)"

# Tested on: PANMI (wild proso millet)
# Test: Pre-emergence herbicidal activity, warm season
# Type: in vivo, Panicum miliaceum
# Settings: GR80 = lowest tested rate (300, 100, 30, 10 g/ha) with 80% or greater inhibition; approx. 14 days after treating; 30/21° C.
# Method in brief: (§2)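 GR80 values, pre-emergence, soil applied at 300, 100, 30, 10 g/ha. Warm regime 30/21 °C: PANMI, DIGSA. Cool regime 18/13 °C: ALOMY, POLCO. Rating ~14 d, % inhibition vs untreated.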
row,SMILES,Pre-emergence activity (GR80) PANMI
1,CCOC(=O)C(F)(F)S(=O)(=O)c1ncn(C(=O)N(CC)CC)n1 [Example 7],300 g/ha

# Tested on: LAMPU (purple deadnettle)
# Test: Pre-emergence herbicidal activity, cool season
# Type: in vivo, Lamium purpureum
# Settings: lowest tested rate with 80% or greater inhibition; rates 300, 100, 30, 10 g/ha; about 14 days
# Method in brief: as §1
row,SMILES,"Pre-emergence activity GR80, LAMPU"
1,CCOC(=O)C(F)(F)S(=O)(=O)c1ncn(C(=O)N(CC)CC)n1 [Example 7],[empty]

# Tested on: DIGSA (large crabgrass)
# Test: Pre-emergence herbicidal activity, warm season
# Type: in vivo, Digitaria sanguinalis
# Settings: GR80 = lowest tested rate (300, 100, 30, 10 g/ha) with 80% or greater inhibition; approx. 14 days after treating; 30/21° C.
# Method in brief: as §2
row,SMILES,Pre-emergence activity (GR80) DIGSA
1,CCOC(=O)C(F)(F)S(=O)(=O)c1ncn(C(=O)N(CC)CC)n1 [Example 7],300 g/ha

# Tested on: SETFA (giant foxtail)
# Test: Pre-emergence herbicidal activity, warm season
# Type: in vivo, Setaria faberi
# Settings: GR80 = lowest tested rate (300, 100, 30, 10 g/ha) with 80% or greater inhibition; approx. 14 days after treating; 30/21° C.
# Method in brief: (§3)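 Seeds sown in sterilised fertilised topsoil received surface-applied compound in 50:50 acetone/water, typically at 300, 100, 30 and 10 g/ha, then greenhouse-grown at 30/21° C (warm-season species) or 18/13° C (cool-season species). Percent inhibition versus untreated plants was scored at about 14 days, giving GR80; an asterisk marks activity short of 80% at the top rate.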
row,SMILES,Pre-emergence activity (GR80) SETFA
1,CCOC(=O)C(F)(F)S(=O)(=O)c1ncn(C(=O)N(CC)CC)n1 [Example 7],300 g/ha

# Tested on: POLCO (wild buckwheat)
# Test: Pre-emergence herbicidal activity, cool season
# Type: in vivo, Polygonum convolvulus
# Settings: lowest tested rate with 80% or greater inhibition; rates 300, 100, 30, 10 g/ha; about 14 days
# Method in brief: as §2
row,SMILES,"Pre-emergence activity GR80, POLCO"
1,CCOC(=O)C(F)(F)S(=O)(=O)c1ncn(C(=O)N(CC)CC)n1 [Example 7],[empty]

# Tested on: AMARE (redroot pigweed)
# Test: Pre-emergence herbicidal activity, warm season
# Type: in vivo, Amaranthus retroflexus
# Settings: GR80 = lowest tested rate (300, 100, 30, 10 g/ha) with 80% or greater inhibition; approx. 14 days after treating; 30/21° C.
# Method in brief: as §1
row,SMILES,Pre-emergence activity (GR80) AMARE
1,CCOC(=O)C(F)(F)S(=O)(=O)c1ncn(C(=O)N(CC)CC)n1 [Example 7],300 g/ha

# Tested on: DATST (jimsonweed)
# Test: Pre-emergence herbicidal activity, warm season
# Type: in vivo, Datura stramonium
# Settings: GR80 = lowest tested rate (300, 100, 30, 10 g/ha) with 80% or greater inhibition; approx. 14 days after treating; 30/21° C.
# Method in brief: as §1
row,SMILES,Pre-emergence activity (GR80) DATST
1,CCOC(=O)C(F)(F)S(=O)(=O)c1ncn(C(=O)N(CC)CC)n1 [Example 7],300 g/ha

# Tested on: KCHSC (kochia)
# Test: Pre-emergence herbicidal activity, cool season
# Type: in vivo, Kochia scoparia
# Settings: lowest tested rate with 80% or greater inhibition; rates 300, 100, 30, 10 g/ha; about 14 days
# Procedure: (§4) Tables 5 to 8 summarize results of tests conducted as described below to determine the pre-emergence herbicidal activity, in the form of a GR80 value, of illustrative compounds of this invention. […] Compounds of the invention were typically applied at rates of 300, 100, 30, and 10 g/ha. Where herbicidal activity was evident but 80% inhibition was not achieved at the highest rate tested, an asterisk (*) is shown in the following tables.
# (§5) The pre-emergence tests were conducted by the following procedure. Topsoil was sieved to pass through a 1.27 cm screen. Fertilizer was added to the topsoil and the mixture was then sterilized by heating. The topsoil mixture was placed in a pot and compacted to a depth of 1.0 to 1.25 cm from the top of the pot. Seeds of each of several monocotyledonous and dicotyledonous annual plant species were placed on top of the soil. Additional soil was subsequently placed over the seeds to level-fill the pot. A known amount of each test compound dissolved or suspended in an appropriate organic solvent was diluted with a 50:50 mix of acetone and water and applied to the surface of the soil. After treatment the plants were placed in a greenhouse where they received 0.64 cm of overhead irrigation. All subsequent watering consisted of a light overhead mist and/or subirrigation as needed for germination and growth. Tables 5 and 6 below relate to warm season plant species which were placed after pre-emergence treatment in a greenhouse with a 30/21° C. day/night temperature regime. Tables 7 and 8 below relates to cool season plant species placed after pre-emergence treatment in a greenhouse or growth chamber with an 18/13° C. day/night temperature regime.
# (§6) Approximately 14 days after planting and treating, the plants were observed and herbicidal efficacy recorded as percent inhibition by comparison with untreated plants.
# (§7) The plant species usually regarded as weeds which were utilized in the tests are identified in the tables below according to the following legend, in which “d” indicates a dicotyledonous species and “m” a monocotyledonous species. All monocotyledonous species included in the tests herein are grasses.
row,SMILES,"Pre-emergence activity GR80, KCHSC"
1,CCOC(=O)C(F)(F)S(=O)(=O)c1ncn(C(=O)N(CC)CC)n1 [Example 7],[empty]

# Tested on: VERPE (creeping speedwell)
# Test: Pre-emergence herbicidal activity, cool season
# Type: in vivo, Veronica persicaria
# Settings: lowest tested rate with 80% or greater inhibition; rates 300, 100, 30, 10 g/ha; about 14 days
# Method in brief: as §1
row,SMILES,"Pre-emergence activity GR80, VERPE"
1,CCOC(=O)C(F)(F)S(=O)(=O)c1ncn(C(=O)N(CC)CC)n1 [Example 7],[empty]

# Tested on: ECHCG (barnyardgrass)
# Test: Pre-emergence herbicidal activity, warm season
# Type: in vivo, Echinochloa crus-galli
# Settings: GR80 = lowest tested rate (300, 100, 30, 10 g/ha) with 80% or greater inhibition; approx. 14 days after treating; 30/21° C.
# Method in brief: as §3
row,SMILES,Pre-emergence activity (GR80) ECHCG
1,CCOC(=O)C(F)(F)S(=O)(=O)c1ncn(C(=O)N(CC)CC)n1 [Example 7],300 g/ha

# Tested on: ALOMY (blackgrass)
# Test: Pre-emergence herbicidal activity, cool season
# Type: in vivo, Alopecurus myosuroides
# Settings: GR80 = lowest tested rate (300, 100, 30, 10 g/ha) with 80% or greater inhibition; approx. 14 days after treating; 18/13° C.
# Method in brief: as §2
row,SMILES,Pre-emergence activity (GR80) ALOMY
1,CCOC(=O)C(F)(F)S(=O)(=O)c1ncn(C(=O)N(CC)CC)n1 [Example 7],"* (activity observed, at least at highest rate, but <80% inhibition)"

# Tested on: SORHA (johnsongrass (seedling))
# Test: Pre-emergence herbicidal activity, warm season
# Type: in vivo, Sorghum halepense
# Settings: GR80 = lowest tested rate (300, 100, 30, 10 g/ha) with 80% or greater inhibition; approx. 14 days after treating; 30/21° C.
# Method in brief: as §3
row,SMILES,Pre-emergence activity (GR80) SORHA
1,CCOC(=O)C(F)(F)S(=O)(=O)c1ncn(C(=O)N(CC)CC)n1 [Example 7],300 g/ha

# Tested on: BRAPP (broadleaf signalgrass)
# Test: Pre-emergence herbicidal activity, warm season
# Type: in vivo, Brachiaria platyphylla
# Settings: GR80 = lowest tested rate (300, 100, 30, 10 g/ha) with 80% or greater inhibition; approx. 14 days after treating; 30/21° C.
# Method in brief: as §3
row,SMILES,Pre-emergence activity (GR80) BRAPP
1,CCOC(=O)C(F)(F)S(=O)(=O)c1ncn(C(=O)N(CC)CC)n1 [Example 7],300 g/ha

# Tested on: STEME (common chickweed)
# Test: Pre-emergence herbicidal activity, cool season
# Type: in vivo, Stellaria media
# Settings: lowest tested rate with 80% or greater inhibition; rates 300, 100, 30, 10 g/ha; about 14 days
# Method in brief: as §1
row,SMILES,"Pre-emergence activity GR80, STEME"
1,CCOC(=O)C(F)(F)S(=O)(=O)c1ncn(C(=O)N(CC)CC)n1 [Example 7],30 g/ha

# Tested on: PANDI (fall panicum)
# Test: Pre-emergence herbicidal activity, warm season
# Type: in vivo, Panicum dichotomiflorum
# Settings: GR80 = lowest tested rate (300, 100, 30, 10 g/ha) with 80% or greater inhibition; approx. 14 days after treating; 30/21° C.
# Method in brief: as §3
row,SMILES,Pre-emergence activity (GR80) PANDI
1,CCOC(=O)C(F)(F)S(=O)(=O)c1ncn(C(=O)N(CC)CC)n1 [Example 7],300 g/ha

# Tested on: SASKR (russian thistle)
# Test: Pre-emergence herbicidal activity, cool season
# Type: in vivo, Salsola kali
# Settings: lowest tested rate with 80% or greater inhibition; rates 300, 100, 30, 10 g/ha; about 14 days
# Method in brief: as §1
row,SMILES,"Pre-emergence activity GR80, SASKR"
1,CCOC(=O)C(F)(F)S(=O)(=O)c1ncn(C(=O)N(CC)CC)n1 [Example 7],[empty]

# Tested on: CHEAL (common lambsquarters)
# Test: Pre-emergence herbicidal activity, warm season
# Type: in vivo, Chenopodium album
# Settings: GR80 = lowest tested rate (300, 100, 30, 10 g/ha) with 80% or greater inhibition; approx. 14 days after treating; 30/21° C.
# Method in brief: as §1
row,SMILES,Pre-emergence activity (GR80) CHEAL
1,CCOC(=O)C(F)(F)S(=O)(=O)c1ncn(C(=O)N(CC)CC)n1 [Example 7],300 g/ha

# Tested on: GALAP (catchweed bedstraw)
# Test: Pre-emergence herbicidal activity, cool season
# Type: in vivo, Galium aparine
# Settings: lowest tested rate with 80% or greater inhibition; rates 300, 100, 30, 10 g/ha; about 14 days
# Method in brief: as §1
row,SMILES,"Pre-emergence activity GR80, GALAP"
1,CCOC(=O)C(F)(F)S(=O)(=O)c1ncn(C(=O)N(CC)CC)n1 [Example 7],[empty]

# Tested on: AGSST (creeping bentgrass)
# Test: Pre-emergence herbicidal activity, cool season
# Type: in vivo, Agrostis stolonifera
# Settings: GR80 = lowest tested rate (300, 100, 30, 10 g/ha) with 80% or greater inhibition; approx. 14 days after treating; 18/13° C.
# Method in brief: as §1
row,SMILES,Pre-emergence activity (GR80) AGSST
1,CCOC(=O)C(F)(F)S(=O)(=O)c1ncn(C(=O)N(CC)CC)n1 [Example 7],300 g/ha

# Tested on: AGRRE (quackgrass (seedling))
# Test: Pre-emergence herbicidal activity, cool season
# Type: in vivo, Elymus repens
# Settings: GR80 = lowest tested rate (300, 100, 30, 10 g/ha) with 80% or greater inhibition; approx. 14 days after treating; 18/13° C.
# Procedure: as §4, §5, §6, §7
row,SMILES,Pre-emergence activity (GR80) AGRRE
1,CCOC(=O)C(F)(F)S(=O)(=O)c1ncn(C(=O)N(CC)CC)n1 [Example 7],300 g/ha
